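Briefly, cells in 96-well plates were exposed to five compound concentrations for 48 h, and endpoints were estimated by linear interpolation. Abbreviation: GI50, concentration required for 50% inhibition of growth.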 Active and inactive are the calls of the source. Rule as the data show it: active = GI50 up to about 1.1 µM and inactive = higher. Bridge positions count the residues as written; N and C are the ends. Square brackets hold non-standard residues; d marks the D form. Peptide text beside a SMILES is read from it. I, II: the chains in the order shown. * marks the point of attachment. Quinoxaline2carbonyl = O=C(c1cnc2ccccc2n1)*; NMeV = CN[CH](C(=O)O)C(C)C; NMeC = CN[CH](CS)C(=O)O
Columns and labels:
Experiment in all cases: NCI-60 cell line screen, 48 h
[1] = test system: MDA-MB-435
[2] = test system: MOLT-4
[3] = test system: TK-10
[4] = test system: A549
[5] = test system: NCI-H522
[6] = test system: HCT-15
[7] = test system: PC-3
[8] = test system: HCT-116
[9] = test system: SNB-75
[10] = test system: RXF 393
[11] = test system: SK-MEL-2
[12] = test system: A498
[13] = test system: U-251
[14] = test system: SR
[15] = test system: MCF7
[16] = test system: SF-295
[17] = test system: UACC-62
[18] = test system: Malme-3M
[19] = test system: HOP-62
[20] = test system: CCRF-CEM

Row | Compound | GI50 [1] | GI50 [2] | GI50 [3] | GI50 [4] | GI50 [5] | GI50 [6] [µM] | GI50 [7] | GI50 [8] | GI50 [9] | GI50 [10] | GI50 [11] | GI50 [12] | GI50 [13] | GI50 [14] | GI50 [15] | GI50 [16] | GI50 [17] | GI50 [18] | GI50 [19] | GI50 [20]
1 | CN(NC(=O)c1ccc(Cl)cc1)C1=NCCCCN1 | > 100 µM (inactive) | > 100 µM (inactive) | > 100 µM (inactive) | > 100 µM (inactive) | > 100 µM (inactive) | > 100 | > 100 µM (inactive) | > 100 µM (inactive) | > 100 µM (inactive) | > 100 µM (inactive) | > 100 µM (inactive) | > 100 µM (inactive) | > 100 µM (inactive) | > 100 µM (inactive) | > 100 µM (inactive) | > 100 µM (inactive) | > 100 µM (inactive) | > 100 µM (inactive) | > 100 µM (inactive) | > 100 µM (inactive)
2 | CC(=C(C(N)=O)C(N)=O)C1C=C(c2cccs2)CC(c2ccc(Cl)cc2)=C1O (stereo unspecified) | 42.2 µM (inactive) | 21.9 µM (inactive) | 45.3 µM (inactive) | 88.7 µM (inactive) | 30.3 µM (inactive) | 20.9 | 9.55 µM (inactive) | 8.85 µM (inactive) | 90.6 µM (inactive) | > 100 µM (inactive) | > 100 µM (inactive) | 21.5 µM (inactive) | 35.6 µM (inactive) | 31 µM (inactive) | 8.95 µM (inactive) | 82.8 µM (inactive) | 25.1 µM (inactive) |  | > 100 µM (inactive) | 26.2 µM (inactive)
3 | CC(=O)/C(=C/N1CCNC1=S)C(=O)Nc1ccccc1C | > 100 µM (inactive) | > 100 µM (inactive) | > 100 µM (inactive) | > 100 µM (inactive) | > 100 µM (inactive) | > 100 | > 100 µM (inactive) | > 100 µM (inactive) | > 100 µM (inactive) | > 100 µM (inactive) | > 100 µM (inactive) | > 100 µM (inactive) | > 100 µM (inactive) | 83 µM (inactive) | > 100 µM (inactive) | > 100 µM (inactive) | > 100 µM (inactive) |  | > 100 µM (inactive) | > 100 µM (inactive)
4 | COCCOCCOC1=C(Cl)C(=O)c2c(O)ccc(O)c2C1=O | 1.74 µM (inactive) | 0.303 µM (active) | 1.52 µM (inactive) | 8.02 µM (inactive) | 1.01 µM (active) | 1.61 | 5.42 µM (inactive) | 0.923 µM (active) | 15.6 µM (inactive) | 1.44 µM (inactive) | 1.17 µM (inactive) | 3.59 µM (inactive) | 5.16 µM (inactive) | 0.399 µM (active) | 1.97 µM (inactive) | 11.7 µM (inactive) | 1.63 µM (inactive) | 1.65 µM (inactive) | 2.39 µM (inactive) | 0.414 µM (active)
5 | COc1ccc(C(=O)Oc2c(C#N)sc3c2c(=O)n(-c2ccccc2)c(=S)n3-c2ccccc2)cc1 | 22.7 µM (inactive) | 21 µM (inactive) | 28 µM (inactive) | 30.1 µM (inactive) | 0.131 µM (active) | 16.7 | 26.5 µM (inactive) | 18.1 µM (inactive) | > 100 µM (inactive) | 21.8 µM (inactive) |  | 16.4 µM (inactive) | 25.8 µM (inactive) | < 0.01 µM (active) | 15 µM (inactive) | 35.7 µM (inactive) | 5.66 µM (inactive) |  | 24.7 µM (inactive) | 15.1 µM (inactive)
6 | CC1NC(=O)C(NC(=O)c2cnc3ccccc3n2)COC(=O)C(C(C)C)N(C)C(=O)C2CSSCC(C(=O)N(C)C(C(C)C)C(=O)OCC(NC(=O)c3cnc4ccccc4n3)C(=O)NC(C)C(=O)N2C)N(C)C1=O (stereo unspecified) (I: Quinoxaline2carbonyl-SA[NMeC][NMeV] / II: Quinoxaline2carbonyl-SA[NMeC][NMeV]; ester I:1-II:C, I:C-II:1; disulfide I:3-II:3; configuration not given here) | < 0.01 µM (active) | < 0.01 µM (active) | < 0.01 µM (active) | < 0.01 µM (active) | < 0.01 µM (active) | < 0.01 | < 0.01 µM (active) | < 0.01 µM (active) | < 0.01 µM (active) | < 0.01 µM (active) | < 0.01 µM (active) | < 0.01 µM (active) | < 0.01 µM (active) | 0.114 µM (active) | < 0.01 µM (active) | < 0.01 µM (active) | < 0.01 µM (active) | < 0.01 µM (active) | < 0.01 µM (active) | < 0.01 µM (active)
7 | CCCCCC(=O)OCC1(CO)C/C(=C\CC(C(C)C)C(C)C)C(=O)O1 (stereo unspecified) | > 100 µM (inactive) | 17.9 µM (inactive) | > 100 µM (inactive) | 76.9 µM (inactive) | 21.9 µM (inactive) | 75.2 | > 100 µM (inactive) | 45.7 µM (inactive) | 44.4 µM (inactive) | > 100 µM (inactive) | > 100 µM (inactive) | 86.1 µM (inactive) | 25.1 µM (inactive) | 27.2 µM (inactive) | 78.7 µM (inactive) | 25.9 µM (inactive) | > 100 µM (inactive) | 15.3 µM (inactive) | 39 µM (inactive) | 26.4 µM (inactive)
8 | CCN1CCCCCCCCCC(=N/O)/C(=N\O)C1 | > 100 µM (inactive) | > 100 µM (inactive) | > 100 µM (inactive) | > 100 µM (inactive) | > 100 µM (inactive) | > 100 | > 100 µM (inactive) | > 100 µM (inactive) | > 100 µM (inactive) | > 100 µM (inactive) |  | > 100 µM (inactive) | > 100 µM (inactive) | > 100 µM (inactive) | > 100 µM (inactive) | > 100 µM (inactive) |  | > 100 µM (inactive) | > 100 µM (inactive) | > 100 µM (inactive)
9 | CC1(C)CCCOc2cccc(c2)OCCCC(C)(C)C1=O | 34 µM (inactive) | 12.8 µM (inactive) | > 100 µM (inactive) | 31.7 µM (inactive) | 13.3 µM (inactive) | 35.5 | 14.8 µM (inactive) | 26.6 µM (inactive) | 30.8 µM (inactive) | 17.7 µM (inactive) | 24.9 µM (inactive) | 66.2 µM (inactive) | 35.2 µM (inactive) | 34 µM (inactive) | 31 µM (inactive) |  | 19.1 µM (inactive) | 27.6 µM (inactive) | 30.6 µM (inactive) | 16.5 µM (inactive)
10 | O=C1C(S(=O)(=O)c2ccccc2)=C(CS(=O)(=O)c2ccccc2)[C@@H](OCc2ccccc2)[C@@H]1OCc1ccccc1 | 26.9 µM (inactive) | 16.9 µM (inactive) | 31.8 µM (inactive) | 27.7 µM (inactive) | 16 µM (inactive) | 18.2 | 25.8 µM (inactive) | 13.6 µM (inactive) | > 100 µM (inactive) | 13.9 µM (inactive) | 16.2 µM (inactive) | 23.3 µM (inactive) | 19.6 µM (inactive) | 14.5 µM (inactive) | 27.4 µM (inactive) | 18.7 µM (inactive) | 17.3 µM (inactive) | 17.6 µM (inactive) | 19 µM (inactive) | 14 µM (inactive)
11 | NC(=O)C(=O)c1ncn(Cc2ccccc2)c1N | > 100 µM (inactive) |  | > 100 µM (inactive) | > 100 µM (inactive) | > 100 µM (inactive) | > 100 | > 100 µM (inactive) | > 100 µM (inactive) | > 100 µM (inactive) | > 100 µM (inactive) | > 100 µM (inactive) | > 100 µM (inactive) | > 100 µM (inactive) | > 100 µM (inactive) | > 100 µM (inactive) | > 100 µM (inactive) | > 100 µM (inactive) | > 100 µM (inactive) | > 100 µM (inactive) | > 100 µM (inactive)
12 | CC1C(c2ccc(N(C)C)cc2)c2cc3c(cc2OC1N1CCCC1)OCO3 (stereo unspecified) | 16.6 µM (inactive) | 48.8 µM (inactive) | 98.6 µM (inactive) | 45.3 µM (inactive) | 29.5 µM (inactive) | 36.9 | 37.3 µM (inactive) | 36.4 µM (inactive) | > 34.4 µM (inactive) | 22.9 µM (inactive) | 30.5 µM (inactive) | 20.7 µM (inactive) | 34 µM (inactive) | 38.8 µM (inactive) | 24.3 µM (inactive) | 32.1 µM (inactive) | 46.1 µM (inactive) | 40.7 µM (inactive) | 25.2 µM (inactive) | 36 µM (inactive)
13 | Cc1ccc2[nH]c3c(C)c4cc[n+](C)cc4c(C)c3c2c1 | 2.45 µM (inactive) | 5.87 µM (inactive) | 5.42 µM (inactive) | 0.325 µM (active) | 1.03 µM (active) | 14.1 | 0.63 µM (active) | 1.36 µM (inactive) | 0.251 µM (active) | 1.42 µM (inactive) | 1.7 µM (inactive) | 0.891 µM (active) | 0.41 µM (active) | 2.56 µM (inactive) | 1.95 µM (inactive) | 0.462 µM (active) | 2.68 µM (inactive) | 1.38 µM (inactive) | 0.774 µM (active) | 3.06 µM (inactive)
14 | C=C(CC[C@@H](C)[C@H]1CC[C@@]2(C)C3=C(CC[C@]12C)[C@@]1(C)CC[C@H](O)[C@@H](C)C1CC3)C(C)C (stereo partly specified) | 1.32 µM (inactive) | 0.953 µM (active) | 1.35 µM (inactive) | 1.2 µM (inactive) |  | 1.2 | 1.07 µM (active) | 1.31 µM (inactive) | 1.25 µM (inactive) | 1.37 µM (inactive) | 1.56 µM (inactive) | 1.41 µM (inactive) | 1.39 µM (inactive) | 1.01 µM (active) | 1.47 µM (inactive) | 1.08 µM (active) | 1.43 µM (inactive) | 1.29 µM (inactive) | 0.879 µM (active) | 0.414 µM (active)
